Results reported in patent publication EP3442966B1, “NOVEL N-[(PYRIMIDINYLAMINO)PROPANYL]- AND N-[(PYRIDINYLAMINO)PROPANYL]ARYLCARBOXAMIDES” (Boehringer Ingelheim International GmbH, priority 2016, dated 2017).
Like-named read-outs stand apart in the source and are kept apart here.

Legend:
human Orexin 1 receptor = molecular target: T1, human Orexin 1 receptor (Homo sapiens, UniProt O43613); assay: Assay A: in vitro testing of OX1R potency, OX1R IP1 (HTRF) in CHO-K1/hOx1 cells; format: cell-based
T1 construct: stably expressing the full-length human Orexin 1 receptor; expressed in transfected cells; host or cells: CHO-K1 (CHO-K1/hOx1), co-expressing the aequorin photoprotein
T1 sequence (O43613 1-425): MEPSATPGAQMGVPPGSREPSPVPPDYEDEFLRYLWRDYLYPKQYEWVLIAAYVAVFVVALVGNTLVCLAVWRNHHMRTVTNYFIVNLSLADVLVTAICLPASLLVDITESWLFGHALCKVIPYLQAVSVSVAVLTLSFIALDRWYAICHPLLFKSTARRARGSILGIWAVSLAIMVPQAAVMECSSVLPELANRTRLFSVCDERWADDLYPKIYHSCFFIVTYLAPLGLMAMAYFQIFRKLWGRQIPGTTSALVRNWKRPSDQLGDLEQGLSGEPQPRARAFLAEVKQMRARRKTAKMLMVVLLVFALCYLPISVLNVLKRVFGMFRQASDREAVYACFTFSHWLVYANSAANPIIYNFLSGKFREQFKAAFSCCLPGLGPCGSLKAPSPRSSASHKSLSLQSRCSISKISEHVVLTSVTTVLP
Source text: Activation of the orexin receptors expressed in cell lines results in an increase in intracellular IP3 concentration. IP1, a downstream metabolite of IP3, accumulates in cells following receptor activation and is stable in the presence of LiCI. Using Homogeneous Time-Resolved Fluorescence technology with Lumi4-Tb cryptate (commercially available from Cisbio Bioassay) and a suitable fluorescence plate reader. […] This technique is used to characterize pharmacological modification of the orexin receptors.
IP1 measurements are performed in CHO-K1 cells stably expressing the full-length human Orexin 1 receptor and the aequorin photoprotein. Cells are cultivated in Ham's nutrient mixture F12 medium with 10% fetal calf serum, in a 37°C, 95% humidity and 5% CO2 incubator. The CHO-K1/hOx1 cell mass is expanded to larger cell numbers. The cells are obtained as frozen cells in cryo-vials and stored until use at -150°C.
In preparation for the assay, 24 hours before the assay, the cells are thawed at 37°C and immediately diluted with cell culture medium. After centrifugation, the cell pellet is re-suspended in medium and then distributed into the assay plates with a density of 10000 cells/25 µL per well. The plates are incubated for one hour at room temperature to reduce edge effects before they are incubated for 24 hours at 37°C/5% CO2. Compounds are prepared by an 8-point serial dilution in DMSO and a final dilution step into assay buffer (HBSS with 20 mM HEPES, 0.1% BSA and 50 mM LiCl, pH 7.4) to ensure a final DMSO concentration of 1% in the assay.
On the day of the assay, cells in the plate are washed twice with 60 µL assay buffer (20 µL buffer remained in the wells after washing), followed by adding 5 µL per well of compounds diluted in assay buffer. After 15 minutes of incubation at room temperature 5 µL per well of Orexin A peptide (final concentration: 0.5 nM, and/or 50 nM for selected compounds) dissolved in assay buffer is added to the assay plate. The assay plate is incubated for 60 minutes at 37°C. Then 5 µL per well of Anti-IP1-Cryptate Tb solution and 5 µL per well of IP1-d2 dilution are added and the plate is incubated for a further 60 minutes light protected at room temperature.
8-point four parametric non-linear curve fitting and determination of IC50 values and Hill slopes is performed using a regular analysis software e.g. AssayExplorer (Accelrys).

OX2R [1] = molecular target: T2, OX2R (Homo sapiens, UniProt O43614); conditions: WO2016/034882 Table 3 (Method B), cited from earlier work; for IC50: conversion of pIC50
T2 sequence (O43614 1-444): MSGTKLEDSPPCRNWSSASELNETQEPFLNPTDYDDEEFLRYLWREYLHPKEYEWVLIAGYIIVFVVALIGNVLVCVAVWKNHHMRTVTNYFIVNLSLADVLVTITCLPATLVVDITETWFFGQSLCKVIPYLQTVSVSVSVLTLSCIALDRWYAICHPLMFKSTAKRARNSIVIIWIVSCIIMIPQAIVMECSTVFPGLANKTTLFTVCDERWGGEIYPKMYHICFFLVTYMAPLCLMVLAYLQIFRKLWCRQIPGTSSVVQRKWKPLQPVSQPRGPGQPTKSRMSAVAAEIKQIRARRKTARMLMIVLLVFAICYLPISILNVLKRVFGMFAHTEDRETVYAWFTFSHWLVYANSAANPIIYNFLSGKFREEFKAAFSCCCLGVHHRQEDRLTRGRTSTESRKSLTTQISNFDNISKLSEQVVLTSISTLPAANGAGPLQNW

OX2R [2] = molecular target: T2, OX2R; conditions: WO2016/034882 Table 2 (Method A), cited from earlier work; for IC50: conversion of pIC50
OX1R [3] = molecular target: T3, OX1R (Homo sapiens, UniProt O43613); conditions: data as described in WO03/051872 (page 16-18); given as a range; cited from earlier work
T3 sequence (O43613 1-425): T1 sequence (O43613 1-425)

OX2R [4] = molecular target: T2, OX2R; conditions: data as described in WO03/051872 (page 16-18); given as a range; cited from earlier work
human orexin 2 receptor = molecular target: T4, human orexin 2 receptor (Homo sapiens, UniProt O43614); assay: Assay B: in vitro testing of OX2R potency, OX2R IP1 (HTRF) in CHO-K1/hOx2 cells; format: cell-based; conditions: 0.5 nM Orexin A concentration
T4 construct: stably expressing the full-length human orexin 2 receptor; expressed in transfected cells; host or cells: CHO-K1 (CHO-K1/hOx2), co-expressing the aequorin photoprotein
T4 sequence (O43614 1-444): T2 sequence (O43614 1-444)

OX1R [5] = molecular target: T3, OX1R; assay: OX1R assay of WO2016/034882, Table 3 (Method B); format: cell-based; conditions: ratio from WO2016/034882 Table 3 (Method B) values
[6] = selectivity ratio, OX1R Kb at 50 nM Orexin A, OX2R Kb at 0.5 nM Orexin A

CCN(C(=O)c1cccc(F)c1-n1nccn1)[C@@H](C)CNc1ccc(F)c(C(F)(F)F)n1 [Example 18]
OX2R Kb / OX1R Kb (human Orexin 1 receptor; [6]): 209

CCN(C(=O)c1ccc(Cl)cc1-n1nccn1)[C@@H](C)CNc1ncc(C(F)(F)F)cn1 [Example 7]
OX2R Kb / OX1R Kb (human Orexin 1 receptor; [6]): 922

CC[C@@H](CNc1ccc(C(F)(F)F)cn1)N(CC)C(=O)c1nc(C)ccc1-n1nccn1 [Ex 71 in WO2016/ 034882]
OX2R Kb / OX1R Kb (human Orexin 1 receptor): 905 | OX2R pIC50 (OX2R [1]): 6.6

CCN(C(=O)c1cc(OC)ccc1-n1nccn1)[C@@H](C)CNc1ncc(C(F)(F)F)cn1 [Example 4]
OX2R Kb / OX1R Kb (human Orexin 1 receptor; [6]): 736

CCN(C(=O)c1cc(C)ccc1-n1nccn1)[C@@H](C)CNc1ccc(Cl)cn1 [Example 10]
OX2R Kb / OX1R Kb (human Orexin 1 receptor; [6]): 403

CCN(C(=O)c1cc(C)ccc1-n1nccn1)[C@@H](C)CNc1ncc(C(F)(F)F)cn1 [Example 2]
OX2R Kb / OX1R Kb (human Orexin 1 receptor; [6]): 379

CCN(C(=O)c1ccc(C)cc1-n1nccn1)[C@@H](C)CNc1ncc(C(F)(F)F)cn1 [Example 5]
OX2R Kb / OX1R Kb (human Orexin 1 receptor; [6]): 1783

CCN(C(=O)c1nc(C)sc1-c1ccc(F)cc1)[C@@H](C)CNc1ncc(C(F)(F)F)cn1 [Example 8]
OX2R Kb / OX1R Kb (human Orexin 1 receptor; [6]): 367

CC[C@@H](CNc1ncc(C(F)(F)F)cn1)N(C)C(=O)c1cc(Cl)ccc1-n1nccn1 [Ex 39 in WO2016/ 034882]
OX2R pIC50 (OX2R [2]): < 5.0 | IC50 (OX2R [2]): < 10000 nM | IC50 (OX2R [1]): 1580 nM

CCN(C(=O)c1c(-n2nccn2)ccc(C)c1F)[C@@H](C)CNc1ncc(C(F)(F)F)cn1 [Example 1]
OX2R Kb / OX1R Kb (human Orexin 1 receptor; [6]): 529

CCN(C(=O)c1cccc(F)c1-n1nccn1)[C@@H](C)CNc1ccc(C(F)(F)F)cn1 [Example 15]
OX2R Kb / OX1R Kb (human Orexin 1 receptor; [6]): 880

CCN(C(=O)c1cc(F)ccc1-c1ncccn1)[C@@H](C)CNc1ncc(C(F)(F)F)cc1F [Example 13]
OX2R Kb / OX1R Kb (human Orexin 1 receptor; [6]): 438

CCN(C(=O)c1cccc(F)c1-n1nccn1)[C@@H](C)CNc1ncc(C(F)(F)F)cc1F [Example 16]
OX2R Kb / OX1R Kb (human Orexin 1 receptor; [6]): 560

CCN(C(=O)c1cccc(F)c1-c1ncccn1)[C@@H](C)CNc1ccc(C(F)(F)F)cn1 [Example 11]
OX2R Kb / OX1R Kb (human Orexin 1 receptor; [6]): 212

Cc1nc(C(=O)N(C)CCNc2ncc(Br)cn2)c(-c2ccc(F)cc2)s1 [Example 6 in WO03/051872]
OX1R pKb (OX1R [3]): 6.4 to 7.4 | OX2R pKb (OX2R [4]): <6.6 to 7.4

CC[C@@H](CNc1ccc(Cl)cn1)N(C)C(=O)c1cc(C)ccc1-n1nccn1 [Ex 1 in WO2016/ 034882]
IC50 (OX2R [2]): 1260 nM

CCN(C(=O)c1ccc(OC)cc1-n1nccn1)[C@@H](C)CNc1ncc(C(F)(F)F)cn1 [Example 20]
OX2R Kb / OX1R Kb (human Orexin 1 receptor; [6]): 1264

CC[C@@H](CNc1ncc(C(F)(F)F)cn1)N(C)C(=O)c1c(F)cccc1-n1nccn1 [Ex 91 in WO2016/ 034882]
Kb (human orexin 2 receptor): 313 nM | OX2R IC50 / OX1R IC50 (OX1R [5]): Table 3: 318 | OX2R pIC50 (OX2R [1]): < 5.1

CC[C@@H](CNc1ncc(C(F)(F)F)cn1)N(CC)C(=O)c1nc(C)ccc1-n1nccn1 [Ex 73 in WO2016/ 034882]
OX2R pIC50 (OX2R [1]): < 6.0 | IC50 (OX2R [1]): > 1000 nM

CCN(C(=O)c1ccc(C)c(C)c1-n1nccn1)[C@@H](C)CNc1ccc(Cl)cn1 [Example 14]
OX2R Kb / OX1R Kb (human Orexin 1 receptor; [6]): 1018

CCN(C(=O)c1nc(C)sc1-c1ccccc1)[C@@H](C)CNc1ncc(C(F)(F)F)cn1 [Example 6]
OX2R Kb / OX1R Kb (human Orexin 1 receptor; [6]): 527

CCN(C(=O)c1nccc(C(F)(F)F)c1-c1ccn(C)n1)[C@@H](C)COc1ccc(C(F)(F)F)cn1 [Example 19]
OX2R Kb / OX1R Kb (human Orexin 1 receptor; [6]): 230

CC[C@@H](CNc1ncc(C(F)(F)F)cn1)N(C)C(=O)c1nc(C)ccc1-c1ncccn1 [Ex 84 in WO2016/ 034882]
Kb (human orexin 2 receptor): 229 nM

CCN(C(=O)c1cccc(F)c1-n1nccn1)[C@@H](C)CNc1ccc(Cl)cn1 [Example 17]
OX2R Kb / OX1R Kb (human Orexin 1 receptor; [6]): 268

CCN(C(=O)c1cccc(F)c1-c1ncccn1)[C@@H](C)CNc1ccc(F)c(C(F)(F)F)n1 [Example 12]
OX2R Kb / OX1R Kb (human Orexin 1 receptor; [6]): 216
